Data published in the NIST ThermoML archive (doi:10.1021/acs.jced.7b00297).

Assays:
[1] = 298.15 K; 101.33 kPa; Liquid; Vibrating tube method
[2] = mn = molality of the nth substance listed, in mol/kg; settings: 84.5 kPa, Liquid; for speed of sound: Single path-length method; for mass density: Vibrating tube method

CCCCCCn1cc[n+](C)c1.[Cl-] [1-hexyl-3-methylimidazolium chloride]
Settings | mass density [kg/m3]
[1] | 1042.86

CCCCn1cc[n+](C)c1.[Cl-] [1-butyl-3-methylimidazolium chloride] + O
[2]
Settings | mass density, 288.15 K [kg/m3] | mass density, 298.15 K [kg/m3] | mass density, 308.15 K [kg/m3] | mass density, 318.15 K [kg/m3] | speed of sound, 288.15 K [m/s] | speed of sound, 298.15 K [m/s] | speed of sound, 308.15 K [m/s] | speed of sound, 318.15 K [m/s]
m1 = 0.0344 | 999.577 | 997.479 | 994.434 | 990.589 | 1472 | 1501.5 | 1523.9 | 1540.1
m1 = 0.0526 | 999.828 | 997.71 | 994.648 | 990.791 | 1474.7 | 1504 | 1526.1 | 1542
m1 = 0.0926 | 1000.37 | 998.209 | 995.113 | 991.228 | 1480.8 | 1509.3 | 1530.8 | 1546.1
m1 = 0.1181 | 1000.72 | 998.524 | 995.403 | 991.504 | 1485 | 1513.1 | 1534 | 1548.9
m1 = 0.1806 | 1001.56 | 999.3 | 996.124 | 992.177 | 1493.8 | 1520.7 | 1540.7 | 1554.8
m1 = 0.2371 | 1002.33 | 999.998 | 996.773 | 992.785 | 1502.2 | 1528 | 1547.1 | 1560.5
m1 = 0.479 | 1005.59 | 1002.98 | 999.537 | 995.37 | 1535.7 | 1557.1 | 1572.5 | 1582.7
m1 = 0.7374 | 1009.02 | 1006.11 | 1002.43 | 998.079 | 1568.8 | 1586 | 1597.6 | 1604.5

CCCCn1cc[n+](C)c1.O=S(=O)([O-])C(F)(F)F [1-butyl-3-methylimidazolium trifluoromethanesulfonate]
Settings | mass density [kg/m3]
[1] | 1297.84
